Source: patent US11453660B2, “Androgen receptor and glucocorticoid receptor modulators” (ONCOSTELLAE, S.L., priority 2017, dated 2022)

Tests used:
Rat Androgen Receptor = target: T1, Rat Androgen Receptor (Rattus norvegicus, UniProt P15207); test: Rat Androgen Receptor Binding (polarscreen AR competitor assay, fluorescence polarization); settings: displacement of Fluormone AL Green, 4 hours at RT, read-out: AR rat-fluorimetric
T1 construct: purchased Life Technologies A15880
T1 sequence (P15207 646-902 limits assumed): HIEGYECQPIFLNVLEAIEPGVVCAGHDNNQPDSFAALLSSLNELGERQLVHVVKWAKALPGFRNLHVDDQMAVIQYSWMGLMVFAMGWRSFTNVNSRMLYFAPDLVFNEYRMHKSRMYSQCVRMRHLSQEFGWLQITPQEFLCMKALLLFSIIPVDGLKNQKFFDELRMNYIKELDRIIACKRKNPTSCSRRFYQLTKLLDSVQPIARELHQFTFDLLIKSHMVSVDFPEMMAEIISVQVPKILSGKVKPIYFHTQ
Method in brief: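 Fluorescence-polarization competition of Fluormone AL Green binding to rat androgen receptor; compounds screened in duplicate at 1 and 10 μM, 4 h at RT, read at λexc 485/λem 535 nm. IC50 from 1:10 dilution series, 10 μM to 0.1 nM, in 1× buffer.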

AR-Receptor = target: T2, AR-Receptor (Homo sapiens, UniProt P10275); test: Functional Assay AR-Receptor (MDA-MB-453 cells, luciferase); format: cell-based; settings: antagonist effect in the presence of DHT 1 nM, 24 h, luciferase luminescence, read-out: AR antag KB
T2 sequence (P10275 1-920 Q868H): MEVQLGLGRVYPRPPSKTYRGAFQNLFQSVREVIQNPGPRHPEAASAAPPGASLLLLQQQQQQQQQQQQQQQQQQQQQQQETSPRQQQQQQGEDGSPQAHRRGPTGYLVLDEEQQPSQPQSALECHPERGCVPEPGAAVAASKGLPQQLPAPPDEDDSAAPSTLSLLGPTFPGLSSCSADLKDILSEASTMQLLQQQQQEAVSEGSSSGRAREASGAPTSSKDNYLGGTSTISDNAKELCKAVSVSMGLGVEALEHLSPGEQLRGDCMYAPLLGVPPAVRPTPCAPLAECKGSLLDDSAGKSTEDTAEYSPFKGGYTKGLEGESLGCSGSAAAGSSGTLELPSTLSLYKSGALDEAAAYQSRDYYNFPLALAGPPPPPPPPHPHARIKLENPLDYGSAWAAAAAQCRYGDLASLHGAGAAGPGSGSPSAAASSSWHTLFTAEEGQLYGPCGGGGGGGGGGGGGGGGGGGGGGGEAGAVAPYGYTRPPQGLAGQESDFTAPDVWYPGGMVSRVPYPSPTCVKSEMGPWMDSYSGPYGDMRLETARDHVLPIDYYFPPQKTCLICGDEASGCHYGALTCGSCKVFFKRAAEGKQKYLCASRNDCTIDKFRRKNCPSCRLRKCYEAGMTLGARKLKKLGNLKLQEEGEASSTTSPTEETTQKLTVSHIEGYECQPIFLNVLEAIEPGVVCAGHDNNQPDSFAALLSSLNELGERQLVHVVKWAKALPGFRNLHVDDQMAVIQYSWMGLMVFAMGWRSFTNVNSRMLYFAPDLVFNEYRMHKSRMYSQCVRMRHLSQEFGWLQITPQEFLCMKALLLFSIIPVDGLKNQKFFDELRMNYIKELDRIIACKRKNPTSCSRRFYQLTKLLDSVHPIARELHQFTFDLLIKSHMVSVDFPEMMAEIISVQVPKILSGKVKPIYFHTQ
Method in brief: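 MDA-MB-453 cells, 8000/well, were switched to medium with 0.1% FBS and exposed to compounds for 24 h at 37 °C. Antagonist mode used 1 nM DHT. After lysis and a freeze-thaw cycle, luciferase luminescence was read.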

Row | Compound | IC50 (Rat Androgen Receptor) | Kb (AR-Receptor)
1 | CC(=O)C1=C(C)NC(C)=C(C(=O)OCc2ccccc2)C1c1csc2ccccc12 (stereo not shown) [Example B6, Benzyl 5-acetyl-4-(benzo[b]thiophen-3-yl)-2,6-dimethyl-1,4-dihydro-pyridine-3-carboxylate] | 100 to 1000 nM | 100 to 1000 nM
2 | CC(=O)C1=C(C)NC(C)=C(C(=O)OCC2CCOCC2)C1c1csc2ccccc12 (stereo not shown) [Example C2, (Tetrahydro-2H-pyran-4-yl)methyl 5-acetyl-4-(benzo[b]thiophen-3-yl)-2,6-dimethyl-1,4-dihydropyridine-3-carboxylate] | 100 to 1000 nM | 100 to 1000 nM
3 | CC(=O)C1=C(C)NC(C)=C(C(=O)OCC2CC2)C1c1csc2ncccc12 (stereo not shown) [Example C24, Cyclopropylmethyl 5-acetyl-2,6-dimethyl-4-(thieno[2,3-b]pyridin-3-yl)-1,4-dihydropyridine-3-carboxylate] | < 100 nM | ≥ 1000 nM
4 | COC(=O)C1=C(C)NC(N)=C(C(=O)OC(C)C)C1c1csc2c(C#N)cccc12 (stereo not shown) [Example D41, 3-Isopropyl 5-methyl 2-amino-4-(7-cyanobenzo[b]thiophen-3-yl)-6-methyl-1,4-dihydropyridine-3,5-dicarboxylate] | – | < 100 nM
5 | COC(=O)C1=C(C)NC(N)=C(C(=O)OCC(C)(C)C)C1c1csc2c(C#N)cccc12 (stereo not shown) [Example D43, 5-Methyl 3-neopentyl 2-amino-4-(7-cyanobenzo[b]thiophen-3-yl)-6-methyl-1,4-dihydropyridine-3,5-dicarboxylate] | – | ≥ 1000 nM
6 | CC1=C(C(=O)OCC2CC2)C(c2csc3c(C#N)cccc23)C(C(=O)OCC2CC2)=C(N)N1 (stereo not shown) [Example D46, Bis(cyclopropylmethyl) 2-amino-4-(7-cyanobenzo[b]thiophen-3-yl)-6-methyl-1,4-dihydropyridine-3,5-dicarboxylate] | – | ≥ 1000 nM
7 | C#CCOC(=O)C1=C(C)NC(N)=C(C(=O)OCC2CC2)C1c1csc2c(C#N)cccc12 (stereo not shown) [Example D47, 3-(Cyclopropylmethyl) 5-(prop-2-yn-1-yl) 2-amino-4-(7-cyanobenzo[b]thiophen-3-yl)-6-methyl-1,4-dihydropyridine-3,5-dicarboxylate] | – | ≥ 1000 nM

More lines, now with the values ahead:

Row | IC50 (Rat Androgen Receptor) | Kb (AR-Receptor) | Compound
8 | < 100 nM | ≥ 1000 nM | COC(=O)C1=C(C2CC2)NC(C)=C(C(C)=O)C1c1csc2ncccc12 (stereo not shown) [Example J23, Methyl 5-acetyl-2-cyclopropyl-6-methyl-4-(thieno[2,3-b]pyridin-3-yl)-1,4-dihydropyridine-3-carboxylate]
9 | – | 100 to 1000 nM | COC(=O)C1=C(C2CC2)NC(C)=C(C(C)=O)C1c1csc2c(Br)cccc12 (stereo not shown) [Example J26, Methyl 5-acetyl-4-(7-bromobenzo[b]thiophen-3-yl)-2-cyclopropyl-6-methyl-1,4-dihydropyridine-3-carboxylate]
10 | – | 100 to 1000 nM | CC(=O)C1=C(C)NC(C2CC2)=C(C(=O)OCc2ccncc2)C1c1csc2c(Br)cccc12 (stereo not shown) [Example J41, Pyridin-4-ylmethyl 5-acetyl-4-(7-bromobenzo[b]thiophen-3-yl)-2-cyclopropyl-6-methyl-1,4-dihydropyridine-3-carboxylate]
11 | – | < 100 nM | CC(=O)C1=C(C)NC(C2CC2)=C(C(=O)OCc2ccc(F)cc2)C1c1csc2ncccc12 (stereo not shown) [Example J42, 4-fluorobenzyl 5-acetyl-2-cyclopropyl-6-methyl-4-(thieno[2,3-b]pyridin-3-yl)-1,4-dihydropyridine-3-carboxylate]
12 | – | 100 to 1000 nM | CC(=O)C1=C(C)NC(C)=C(C(=O)OCc2ccc(-c3ccncc3)cc2)C1c1csc2ncccc12 (stereo not shown) [Example L1, 4-(pyridin-4-yl)benzyl 5-acetyl-2,6-dimethyl-4-(thieno[2,3-b]pyridin-3-yl)-1,4 dihydropyridine-3-carboxylate]
13 | – | 100 to 1000 nM | CC(=O)C1=C(C)NC(C)=C(C(=O)OCc2ccc(-c3cccnc3)cc2)C1c1csc2ncccc12 (stereo not shown) [Example L2, 4-(pyridin-3-yl)benzyl 5-acetyl-2,6-dimethyl-4-(thieno[2,3-b]pyridin-3-yl)-1,4-dihydropyridine-3-carboxylate]
14 | – | 100 to 1000 nM | CC(=O)C1=C(C)NC(C)=C(C(=O)OCc2cccc(-c3ccncc3)c2)C1c1csc2ncccc12 (stereo not shown) [Example L3, 3-(pyridin-4-yl)benzyl 5-acetyl-2,6-dimethyl-4-(thieno[2,3-b]pyridin-3-yl)-1,4-dihydropyridine-3-carboxylate]
15 | – | 100 to 1000 nM | CC(=O)C1=C(C)NC(C)=C(C(=O)OCc2cccc(-c3cccnc3)c2)C1c1csc2ncccc12 (stereo not shown) [Example L4, 3-(pyridin-3-yl)benzyl 5-acetyl-2,6-dimethyl-4-(thieno[2,3-b]pyridin-3-yl)-1,4-dihydropyridine-3-carboxylate]
